Paper PMC11097369 (ACS Omega, 2024)

Key:
CFU-GM assay = type: cell-based; details: human, human bone marrow mononuclear cells
R/R-PTCL = details: cited from earlier work
SCLC = details: second-line treatment, patients with SCLC; cited from earlier work

COc1cc(Nc2ncc3c(n2)-c2ccc(Cl)cc2C(c2c(F)cccc2OC)=NC3)ccc1C(=O)O [Alisertib]
IC90 (CFU-GM assay): 252 nM
progression-free survival compared to investigator-selected single-agent comparators (R/R-PTCL): failed to improve the progression-free survival

COc1ccc2[nH]c3c(c2c1)CCN[C@]31CS[C@@H]2c3c(OC(C)=O)c(C)c4c(c3[C@H](COC1=O)N1[C@@H]2[C@H]2c3c(cc(C)c(OC)c3O)C[C@@H]([C@@H]1O)N2C)OCO4 [lurbinectedin]
overall response rate (SCLC): 35.2%
